# Data published in patent US5380715A, “Ap4 A as a hypotensive agent” (Fujirebio Inc., priority 1992, dated 1995).
# “Also recorded” adds a separate entry of the source.
# Legend:
# [1] = system: dogs; assay: Gradual hypotension during anesthesia in dogs (hemodynamics, blood gas); format: in vivo, mongrel dogs; settings: dog
# Experimental: Dogs were anesthetized with enflurane. […] The mean blood pressure (B.P.), heart rate (H.R.), cardiac output (C.O.), arterial oxygen tension (PaO2), mixed venos oxygen tension (PvO2), arterial carbonate tension (PaCO2), mixed venous carbonate tension (PvCO2), arterial pH (pH-a), mixed venous pH (pH-v), and base excess thereof were measured.
# Mongrel dogs weighing 9 to 17 kg were anesthetized with intravenous thiopental 20 mg/kg by bolus injection, followed by 1% enflurane in 40% O2 /N2 after endotracheal intubation. […] Bilateral femoral arteries were catheterized, one for the determination of blood pressure and the other for blood sampling.
# Access to the bilateral femoral veins was obtained for the administration of Ap4A, PG E1 or nitroglycerin and for the insertion of a ballon-tipped thermodilution catheter. The electrocardiogram was continuously monitored. The control values were obtained before the administration of each of the above-mentioned three agents. Each agent was administered using a syringe pump at titrated doses to produce gradual 20%, 40%, 50%, 60%, and 80% decreases in the mean arterial pressure (MAP) from the control value.
# After the target blood pressure and stable hemodynamic conditions were reached, the following parameters were measured: heart rate (HR), mean pulmonary artery pressure (PAM), pulmonary capillary wedge pressure (PCWP), and central venous pressure (CVP). Cardiac output (CO) was determined by the thermodilution method. Gas analyses of arterial and mixed venous bloods were performed using a blood gas analyzer.
# [2] = system: rabbit platelet aggregation; assay: Platelet aggregate dispersing effect; format: cell-based; settings: ADP- and PAF-induced; result in words (FIG. 5)
# Experimental: Fresh blood samples were collected from male Japanese white rabbits weighing 2-3 kg. Blood was anticoagulated with citric acid (1 ml 3.8% citric acid solution +9 ml blood). These samples were centrifuged at room temperature for 20 min at 200×g to obtained platelet-rich plasma (PRP). Furthermore, the supernatant liquid was centrifuged for 10 min at 1500×g to obtained platelet-poor plasma (PPP). Aggregation of platelests was measured photometrically in a Nihon Kohden hema tracer equipped with a mechanical stirring device and with a chart record. At this time, the chart recorder was calibrated as follows: the light transmission obtained with PPP was set as 100% transmission and the optical density of PRP was taken as 0% transmission. Maximal aggregation, i.e. the maximal change in optical density of the primary wave calculated in percent light transmission. From the study, it was determined that ADP, Ap3A, PAF(platelet activating factor) and collagen induced maximal aggregations at a concentration of 1×10^-5 M, 1×10^-4 M, 1.9×10^-7 M and 5 μg/kg, respectively. In the following studies, these aggregating agents were used at maximal dose. The effect of Ap4A on platelet aggregation by ADP and Ap3A were tested. In this time, Ap4A was pretreated for 1 or 10 min before the addition of aggregating agents. […]
# [3] = system: blood pressure; assay: Gradual hypotension under halothane or urethane + α-chloralose anesthesia; format: in vivo; settings: halothane anesthesia; urethane (0.5 g/kg) + α-chloralose (80 mg/kg) anesthesia; words
# [4] = enflurane, at -20% blood pressure
# [5] = enflurane, at -40% blood pressure
# [6] = enflurane, at -50% blood pressure
# [7] = enflurane, at -60% blood pressure
# [8] = enflurane, at -80% blood pressure
smiles,measurement,setting,value
"Nc1ncnc2c1ncn2[C@@H]1O[C@H](COP(=O)(O)OP(=O)(O)OP(=O)(O)OP(=O)(O)OC[C@H]2O[C@@H](n3cnc4c(N)ncnc43)[C@H](O)[C@@H]2O)[C@@H](O)[C@H]1O [Ap4A, diadenosine 5',5'""-p^1,p^4 -tetraphosphate]",fall in blood pressure attainable,[1]; enflurane,~60%
same,Arterial Carbonate Tension PaCO2,[1]; [4],36.0 ± 1.0 mmHg
same,Arterial Oxygen Tension PaO2,[1]; [4],252.8 ± 7.2 mmHg
same,Arterial pH (pH-a),[1]; [4],7.337 ± 0.013
same,Body Temperature BT,[1]; [4],37.2 ± 0.6 °C
same,Cardiac Output C.O.,[1]; [4],2.42 ± 0.25 L/min
same,Central Venous Pressure CVP,[1]; [4],3.77 ± 0.25 mmHg
same,Heart Rate H.R.,[1]; [4],160.1 ± 7.5 beats/min
same,Hematocrit Value Hct,[1]; [4],40.6 ± 2.1%
same,Mean Blood Pressure B.P. (mean),[1]; [4],104.3 ± 3.3
same,Mean Blood Pressure B.P. (Δ%),[1]; [4],-19.8 ± 0.4%
same,Mixed Venous Carbonate Tension PvCO2,[1]; [4],39.3 ± 1.2 mmHg
same,Mixed Venous Oxygen Tension PvO2,[1]; [4],61.6 ± 2.4 mmHg
same,Mixed Venous pH (pH-v),[1]; [4],7.308 ± 0.008
same,Pulmonary Artery Pressure PAM,[1]; [4],18.4 ± 1.5 mmHg
same,Pulmonary Capillary Wedge Pressure PCWP,[1]; [4],8.3 ± 1.3 mmHg
same,Base Excess BE,"[1]; enflurane, at -20% blood pressure (Table 1)",-5.39 ± 0.77 mBq-1
same,Arterial Carbonate Tension PaCO2,[1]; [5],35.3 ± 1.0 mmHg
same,Arterial Oxygen Tension PaO2,[1]; [5],253.8 ± 7.6 mmHg
same,Arterial pH (pH-a),[1]; [5],7.341 ± 0.018
same,Body Temperature BT,[1]; [5],37.3 ± 0.6 °C
same,Cardiac Output C.O.,[1]; [5],2.22 ± 0.15 L/min
same,Central Venous Pressure CVP,[1]; [5],3.89 ± 0.29 mmHg
same,Heart Rate H.R.,[1]; [5],154.9 ± 6.9 beats/min
same,Hematocrit Value Hct,[1]; [5],40.6 ± 1.7%
same,Mean Blood Pressure B.P. (mean),[1]; [5],78.2 ± 2.3
same,Mean Blood Pressure B.P. (Δ%),[1]; [5],-39.8 ± 0.4%
same,Mixed Venous Carbonate Tension PvCO2,[1]; [5],36.6 ± 1.3 mmHg
same,Mixed Venous Oxygen Tension PvO2,[1]; [5],63.3 ± 1.7 mmHg
same,Mixed Venous pH (pH-v),[1]; [5],7.311 ± 0.009
same,Pulmonary Artery Pressure PAM,[1]; [5],17.8 ± 1.6 mmHg
same,Pulmonary Capillary Wedge Pressure PCWP,[1]; [5],8.0 ± 1.2 mmHg
same,Base Excess BE,"[1]; enflurane, at -40% blood pressure (Table 1)",-5.52 ± 0.89 mBq-1
same,Arterial Carbonate Tension PaCO2,[1]; [6],35.0 ± 1.1 mmHg
same,Arterial Oxygen Tension PaO2,[1]; [6],252.5 ± 7.5 mmHg
same,Arterial pH (pH-a),[1]; [6],7.338 ± 0.011
same,Body Temperature BT,[1]; [6],37.2 ± 0.6 °C
same,Cardiac Output C.O.,[1]; [6],2.02 ± 0.16 L/min
same,Central Venous Pressure CVP,[1]; [6],3.64 ± 0.35 mmHg
same,Heart Rate H.R.,[1]; [6],144.0 ± 7.3 beats/min
same,Hematocrit Value Hct,[1]; [6],40.7 ± 1.7%
same,Mean Blood Pressure B.P. (mean),[1]; [6],65.4 ± 2.0
same,Mean Blood Pressure B.P. (Δ%),[1]; [6],-49.6 ± 0.4%
same,Mixed Venous Carbonate Tension PvCO2,[1]; [6],36.7 ± 1.4 mmHg
same,Mixed Venous Oxygen Tension PvO2,[1]; [6],60.5 ± 2.1 mmHg
same,Mixed Venous pH (pH-v),[1]; [6],7.308 ± 0.011
same,Pulmonary Artery Pressure PAM,[1]; [6],16.3 ± 1.4 mmHg
same,Pulmonary Capillary Wedge Pressure PCWP,[1]; [6],7.6 ± 1.2 mmHg
same,Base Excess BE,"[1]; enflurane, at -50% blood pressure (Table 1)",-5.77 ± 0.66 mBq-1
same,Arterial Carbonate Tension PaCO2,[1]; [7],34.6 ± 1.3 mmHg
same,Arterial Oxygen Tension PaO2,[1]; [7],253.8 ± 7.7 mmHg
same,Arterial pH (pH-a),[1]; [7],7.315 ± 0.010
same,Body Temperature BT,[1]; [7],37.2 ± 0.6 °C
same,Cardiac Output C.O.,[1]; [7],1.55 ± 0.20 L/min
same,Central Venous Pressure CVP,[1]; [7],3.63 ± 0.44 mmHg
same,Dose,[1]; [7],242.4 ± 32.8 µg/kg/min
same,Heart Rate H.R.,[1]; [7],131.6 ± 7.5 beats/min
same,Hematocrit Value Hct,[1]; [7],41.9 ± 2.2%
same,Mean Blood Pressure B.P. (mean),[1]; [7],51.7 ± 1.7
same,Mean Blood Pressure B.P. (Δ%),[1]; [7],-60.3 ± 0.2%
same,Mixed Venous Carbonate Tension PvCO2,[1]; [7],38.1 ± 1.8 mmHg
same,Mixed Venous Oxygen Tension PvO2,[1]; [7],54.9 ± 1.8 mmHg
same,Mixed Venous pH (pH-v),[1]; [7],7.292 ± 0.011
same,Pulmonary Artery Pressure PAM,[1]; [7],14.3 ± 1.1 mmHg
same,Pulmonary Capillary Wedge Pressure PCWP,[1]; [7],6.7 ± 10.9 mmHg
same,Base Excess BE,"[1]; enflurane, at -60% blood pressure (Table 1)",-7.30 ± 0.64 mBq-1
same,Arterial Carbonate Tension PaCO2,[1]; [8],37.5 ± 1.1 mmHg
same,Arterial Oxygen Tension PaO2,[1]; [8],245.6 ± 9.2 mmHg
same,Arterial pH (pH-a),[1]; [8],7.260 ± 0.010
same,Body Temperature BT,[1]; [8],37.4 ± 0.6 °C
same,Cardiac Output C.O.,[1]; [8],1.16 ± 0.11 L/min
same,Central Venous Pressure CVP,[1]; [8],3.51 ± 0.60 mmHg
same,Dose,[1]; [8],3895.2 ± 675.7 µg/kg/min
same,Heart Rate H.R.,[1]; [8],98.6 ± 4.7 beats/min
same,Hematocrit Value Hct,[1]; [8],42.8 ± 2.2%
same,Mean Blood Pressure B.P. (mean),[1]; [8],28.8 ± 1.0
same,Mean Blood Pressure B.P. (Δ%),[1]; [8],-77.8 ± 0.8%
same,Mixed Venous Carbonate Tension PvCO2,[1]; [8],44.4 ± 1.4 mmHg
same,Mixed Venous Oxygen Tension PvO2,[1]; [8],53.3 ± 2.8 mmHg
same,Mixed Venous pH (pH-v),[1]; [8],7.228 ± 0.014
same,Pulmonary Artery Pressure PAM,[1]; [8],14.3 ± 1.2 mmHg
same,Pulmonary Capillary Wedge Pressure PCWP,[1]; [8],7.4 ± 1.0 mmHg
same,Base Excess BE,"[1]; enflurane, at -80% blood pressure (Table 1)",-9.36 ± 0.79 mBq-1
same,effect on arterial pH / venous pH,[1]; result in words,does not decrease arterial pH and venous pH up to a less than 60% fall in blood pressure; also recorded: does not substantially decrease arterial pH in practical use
same,effect on base excess,[1]; result in words,does not make any significant changes in base excess
same,effect on carbonate tension,[1]; result in words,"tendency to decrease arterial carbonate tension (PaCO2), and mixed venous carbonate tension (PvCO2); also recorded: tendency to decrease arterial carbonate tension (PaCO2), mixed venous carbonate tension (PvCO2), or actually decreases PaCO2 and PvCO2"
same,effect on cardiac output,[1]; result in words,"cardiac output is significantly increased at a 20% fall in blood pressure; also recorded: tendency to significantly increase the cardiac output when a 20% fall in blood pressure is attained, and the cardiac output is continuously increased until a 60% fall in blood pressure is attained"
same,effect on heart rate,[1]; result in words,"when a 60% or more fall in blood pressure is attained, Ap4A is seem to have significant adverse effects on the heart rate; also recorded: significant effect on heart rate is that required for a 60% or more fall in blood pressure"
same,effect on oxygen tension,[1]; result in words,"tendency to increase arterial oxygen tension (PaO2), and mixed venous oxygen tension (PvO2); also recorded: tendency to increase arterial oxygen tension (PaO2), and mixed venous oxygen tension (PvCO2), or actually increases PaO2 and PvO2"
same,hypotensive effect compared with PG E1 / nitroglycerin,[1]; result in words,the same hypotensive effect as that of PG E1; also recorded: comparable with that of PG E1 and is better than that of nitroglycerin
same,platelet aggregate dispersing effect,[2],Both ADP- and PAF-induced platelet aggregations were dispersed; also recorded: dispersing aggregated lumps formed by PAF (platelet activating factor) and ADP
same,gradual hypotensive effect,[3],almost the same gradual hypotensive effect
